Test results from paper PMC6519835, “A family AA5_2 carbohydrate oxidase from Penicillium rubens displays functional overlap across the AA5 family” (PLoS ONE, 2019).

Columns and labels:
[1] = biological target: T1, FgrGaOx (galactose oxidase) (Fusarium graminearum, UniProt P0CS93); format: biochemical
T1 construct: gene GAOA

PruAA5_2A [2] = biological target: T2, PruAA5_2A (Penicillium rubens, UniProt B6HHT0); assay: purified enzyme specific activity and kinetics (HRP/ABTS assay); format: biochemical
T2 construct: gene Pc21g18600; recombinant from P. pastoris
T2 sequence (B6HHT0 22-657): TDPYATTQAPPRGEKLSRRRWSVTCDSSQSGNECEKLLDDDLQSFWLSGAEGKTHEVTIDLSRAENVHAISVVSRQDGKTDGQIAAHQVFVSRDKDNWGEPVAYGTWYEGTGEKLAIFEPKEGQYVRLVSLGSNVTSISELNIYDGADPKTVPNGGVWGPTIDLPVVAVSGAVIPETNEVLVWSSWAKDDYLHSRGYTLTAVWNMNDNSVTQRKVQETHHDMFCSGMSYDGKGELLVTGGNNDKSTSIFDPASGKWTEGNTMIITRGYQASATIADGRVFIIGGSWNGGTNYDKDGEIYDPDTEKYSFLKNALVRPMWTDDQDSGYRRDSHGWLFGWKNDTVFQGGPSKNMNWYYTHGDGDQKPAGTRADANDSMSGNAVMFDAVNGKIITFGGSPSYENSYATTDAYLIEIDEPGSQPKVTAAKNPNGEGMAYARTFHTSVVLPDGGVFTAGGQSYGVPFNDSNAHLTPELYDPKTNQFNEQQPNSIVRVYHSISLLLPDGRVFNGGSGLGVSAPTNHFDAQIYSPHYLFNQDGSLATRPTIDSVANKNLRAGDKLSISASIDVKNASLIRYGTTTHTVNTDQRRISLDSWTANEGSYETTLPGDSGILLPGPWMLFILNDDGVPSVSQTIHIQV

PruAA5_2A [3] = biological target: T2, PruAA5_2A; assay: purified enzyme specific activity at […] (HRP/ABTS assay); format: biochemical
PruAA5_2A [4] = biological target: T2, PruAA5_2A; assay: purified enzyme kinetics (HRP/ABTS assay) and MS of the C-6 oxidized product; […] U/mg at […]; format: biochemical
[5] = biological target: T1, FgrGaOx (galactose oxidase); format: biochemical; remark: listed apart in the source
purified protein = substrate: OC1COC(O)CO1; assay: purified protein; format: biochemical, Penicillium rubens; details: copper; Tyr-Cys radical cofactor

T1 sequence (P0CS93 42-680 limits assumed): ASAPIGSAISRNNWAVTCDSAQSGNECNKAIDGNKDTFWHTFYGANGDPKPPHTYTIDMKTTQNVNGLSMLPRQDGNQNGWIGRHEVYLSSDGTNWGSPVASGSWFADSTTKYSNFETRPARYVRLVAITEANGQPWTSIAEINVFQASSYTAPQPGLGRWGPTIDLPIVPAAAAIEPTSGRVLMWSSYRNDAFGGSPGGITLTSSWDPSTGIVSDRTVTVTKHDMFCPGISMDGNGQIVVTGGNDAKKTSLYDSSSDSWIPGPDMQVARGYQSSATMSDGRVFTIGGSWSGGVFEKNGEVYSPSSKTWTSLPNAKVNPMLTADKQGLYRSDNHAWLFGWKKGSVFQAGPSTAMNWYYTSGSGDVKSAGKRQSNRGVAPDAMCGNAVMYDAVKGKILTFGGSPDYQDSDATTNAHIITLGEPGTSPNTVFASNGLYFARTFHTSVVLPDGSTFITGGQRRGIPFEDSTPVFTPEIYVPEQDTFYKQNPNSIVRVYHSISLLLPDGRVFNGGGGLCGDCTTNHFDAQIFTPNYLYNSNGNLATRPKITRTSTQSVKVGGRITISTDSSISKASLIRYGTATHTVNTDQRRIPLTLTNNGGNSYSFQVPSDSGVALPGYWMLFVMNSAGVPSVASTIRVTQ

OC[C@H]1OC(O)[C@H](O)[C@@H](O)[C@H]1O (stereo partly shown) [galactose]
purified enzyme kinetics (HRP/ABTS assay), kcat/KM 20 s^-1*mM^-1 [1]: 20000 M⁻¹ s⁻¹

OCC(O)CO [glycerol]
purified enzyme specific activity and kinetics (HRP/ABTS assay) (PruAA5_2A [2]): 22.5 U/mg

OC[C@H]1O[C@H](OC[C@H]2OC(O)[C@H](O)[C@@H](O)[C@@H]2O)[C@H](O)[C@@H](O)[C@H]1O (stereo partly shown) [melibiose]
purified enzyme specific activity at 300 mM (HRP/ABTS assay) (PruAA5_2A [3]): 17.5 U/mg

OC[C@H]1O[C@H](OC[C@H]2O[C@H](O[C@]3(CO)O[C@H](CO)[C@@H](O)[C@@H]3O)[C@H](O)[C@@H](O)[C@@H]2O)[C@H](O)[C@@H](O)[C@H]1O [raffinose]
purified enzyme kinetics (HRP/ABTS assay) and MS of the C-6 oxidized product; 31 (PruAA5_2A [4]): 31.4 U/mg | purified enzyme kinetics (HRP/ABTS assay), kcat/KM 30 s^-1*mM^-1 [5]: 30000 M⁻¹ s⁻¹

OC[C@H]1O[C@H](OC[C@H]2O[C@H](OC[C@H]3O[C@H](O[C@]4(CO)O[C@H](CO)[C@@H](O)[C@@H]4O)[C@H](O)[C@@H](O)[C@@H]3O)[C@H](O)[C@@H](O)[C@H]2O)[C@H](O)[C@@H](O)[C@H]1O [stachyose]
purified enzyme specific activity at 300 mM (HRP/ABTS assay) (PruAA5_2A [3]): 9.4 U/mg

B1: PruAA5_2A (Penicillium rubens Wisconsin 54-1255) (protein)
chain: T2 sequence (B6HHT0 22-657)
notes: recombinant from P. pastoris
Km (purified protein): 53 mM
